One test concerns the target T1, JAK2 (Homo sapiens, UniProt O60674).
T1 construct: endogenous in cells; host or cells: Mixed Molt4/Ramos lysate (1:2)
The test is described as follows: Kinobeads assay, JAK2. The test is classed as binding. The settings on record: mixed Molt4/Ramos cell lysate, dot blot detection. The essentials:
(§1)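 Lysate from Molt4 and Ramos cells combined 1:2 at 10 mg/mL total protein met test compound and an aminopyrido-pyrimidine affinity matrix for 3 h in the cold. Captured JAK2 and JAK3, after elution, were measured by specific-antibody dot blot on an infrared system; dose-response curves yielded IC50.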

A further test addresses T2, JAK3 (Homo sapiens, UniProt P52333).
T2 construct: endogenous in cells; host or cells: Mixed Molt4/Ramos lysate (1:2)
T2 sequence (P52333 1-1124): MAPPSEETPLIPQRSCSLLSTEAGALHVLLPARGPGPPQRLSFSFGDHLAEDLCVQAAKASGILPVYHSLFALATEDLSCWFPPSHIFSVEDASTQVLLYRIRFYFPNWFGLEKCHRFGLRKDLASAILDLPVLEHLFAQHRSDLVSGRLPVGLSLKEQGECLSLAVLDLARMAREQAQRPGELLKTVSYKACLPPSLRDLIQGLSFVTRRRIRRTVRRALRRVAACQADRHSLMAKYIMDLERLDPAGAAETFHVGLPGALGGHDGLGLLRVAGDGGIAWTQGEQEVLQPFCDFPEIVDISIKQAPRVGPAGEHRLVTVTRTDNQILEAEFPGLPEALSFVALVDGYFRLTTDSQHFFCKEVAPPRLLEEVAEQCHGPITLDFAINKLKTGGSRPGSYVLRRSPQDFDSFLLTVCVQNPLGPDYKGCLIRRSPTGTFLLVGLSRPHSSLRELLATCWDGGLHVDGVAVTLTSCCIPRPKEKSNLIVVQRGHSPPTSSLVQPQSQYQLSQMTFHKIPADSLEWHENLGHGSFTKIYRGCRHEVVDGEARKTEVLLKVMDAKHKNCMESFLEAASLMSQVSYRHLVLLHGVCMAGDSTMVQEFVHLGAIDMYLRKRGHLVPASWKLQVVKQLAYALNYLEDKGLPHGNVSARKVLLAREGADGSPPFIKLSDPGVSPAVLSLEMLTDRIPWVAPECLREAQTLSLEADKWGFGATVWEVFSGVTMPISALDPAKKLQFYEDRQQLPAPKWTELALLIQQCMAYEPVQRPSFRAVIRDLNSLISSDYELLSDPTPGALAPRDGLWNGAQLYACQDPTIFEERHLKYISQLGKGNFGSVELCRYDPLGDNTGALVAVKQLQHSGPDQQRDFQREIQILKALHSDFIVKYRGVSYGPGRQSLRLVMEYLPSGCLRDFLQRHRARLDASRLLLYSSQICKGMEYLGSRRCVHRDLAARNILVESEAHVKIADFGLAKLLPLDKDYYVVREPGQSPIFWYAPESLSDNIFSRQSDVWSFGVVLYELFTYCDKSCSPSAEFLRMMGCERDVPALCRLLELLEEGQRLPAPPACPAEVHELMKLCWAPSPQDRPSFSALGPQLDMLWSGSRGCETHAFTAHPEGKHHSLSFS
Kind of test: Kinobeads assay, JAK3. The test is classed as binding. The note with it: mixed Molt4/Ramos cell lysate, dot blot detection. The essentials: as §1

T1 sequence (O60674 whole entry): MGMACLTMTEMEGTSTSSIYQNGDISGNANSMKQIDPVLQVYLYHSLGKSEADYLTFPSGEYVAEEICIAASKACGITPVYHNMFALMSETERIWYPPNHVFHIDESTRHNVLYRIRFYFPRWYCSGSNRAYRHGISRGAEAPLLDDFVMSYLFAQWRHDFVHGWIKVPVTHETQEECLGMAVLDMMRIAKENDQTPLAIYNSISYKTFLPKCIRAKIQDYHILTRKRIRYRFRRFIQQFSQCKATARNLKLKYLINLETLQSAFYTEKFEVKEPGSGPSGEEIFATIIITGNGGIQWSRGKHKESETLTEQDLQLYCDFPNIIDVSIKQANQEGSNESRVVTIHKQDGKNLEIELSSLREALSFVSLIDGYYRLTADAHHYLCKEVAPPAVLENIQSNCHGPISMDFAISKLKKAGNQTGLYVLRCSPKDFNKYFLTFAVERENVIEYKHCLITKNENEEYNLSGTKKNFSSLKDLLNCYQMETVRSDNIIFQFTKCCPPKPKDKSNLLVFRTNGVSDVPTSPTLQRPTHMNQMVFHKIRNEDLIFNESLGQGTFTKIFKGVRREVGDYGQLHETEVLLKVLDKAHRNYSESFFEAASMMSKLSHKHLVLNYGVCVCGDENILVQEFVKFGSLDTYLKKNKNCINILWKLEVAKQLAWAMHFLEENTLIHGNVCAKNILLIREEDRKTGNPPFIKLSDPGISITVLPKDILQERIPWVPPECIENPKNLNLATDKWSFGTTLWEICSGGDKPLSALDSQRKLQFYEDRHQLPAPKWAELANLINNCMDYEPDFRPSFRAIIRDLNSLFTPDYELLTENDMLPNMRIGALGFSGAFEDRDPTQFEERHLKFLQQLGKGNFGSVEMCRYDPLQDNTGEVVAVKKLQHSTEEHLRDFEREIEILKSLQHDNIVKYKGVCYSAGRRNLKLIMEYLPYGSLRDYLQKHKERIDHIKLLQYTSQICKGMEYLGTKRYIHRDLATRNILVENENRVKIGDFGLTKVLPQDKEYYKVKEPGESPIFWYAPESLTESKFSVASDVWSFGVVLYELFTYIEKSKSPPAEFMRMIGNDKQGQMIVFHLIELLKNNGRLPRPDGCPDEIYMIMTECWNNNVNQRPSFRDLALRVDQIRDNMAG

Regarding `Cn1cc(Nc2ncc3cnn(Cc4cccc(N[C@@H]5CCOC5)n4)c3n2)cn1` [Example 187, (R)—N-(1-Methyl-1H-pyrazol-4-yl)-1-((6-((tetrahydrofuran-3-yl)amino)pyridin-2-yl)methyl)-1H-pyrazolo[3,4-d]pyrimidin-6-amine], the IC50 – broadly, the concentration that inhibits the measured activity by half – on JAK2 is no less than 10 µM; against JAK3, less than 0.1 µM.

As to `Cn1cc(Nc2ncc3cnn(Cc4cccc(N5CCCC5)n4)c3n2)cn1` [Example 188, N-(1-Methyl-1H-pyrazol-4-yl)-1-((6-(pyrrolidin-1-yl)pyridin-2-yl)methyl)-1H-pyrazolo[3,4-d]pyrimidin-6-amine], the results for the IC50 at JAK2 and against JAK3 were no less than 10 µM and 0.1 to 1 µM, respectively.

Turning to `Cc1ccc(O)cc1Cn1ncc2cnc(Nc3cnn(C)c3)nc21` [Example 189], the IC50 against JAK2 is no less than 10 µM; against JAK3 it was 0.1 to 1 µM.

With `CN1CCCC(Cn2cc(Nc3ncc4cnn(Cc5ccccc5F)c4n3)cn2)C1` (stereo not drawn) [Example 192, 1-(2-Fluorobenzyl)-N-(1-((1-methylpiperidin-3-yl)methyl)-1H-pyrazol-4-yl)-1H-pyrazolo[3,4-d]pyrimidin-6-amine], the IC50 is 0.1 to 1 µM against JAK2 and less than 0.1 µM at JAK3.

As to `Cn1cc(Nc2ncc3cnn(Cc4cccc(OC[C@H]5CCCO5)n4)c3n2)cn1` [Example 193, (R)—N-(1-Methyl-1H-pyrazol-4-yl)-1-((6-((tetrahydrofuran-2-yl)methoxy)pyridin-2-yl)methyl)-1H-pyrazolo[3,4-d]pyrimidin-6-amine], the IC50 against JAK2 was no less than 10 µM; on JAK3, less than 0.1 µM.

Regarding `CN1CCN(CCCn2cc(Nc3ncc4cnn(Cc5ccccc5F)c4n3)cn2)CC1` [Example 194, 1-(2-Fluorobenzyl)-N-(1-(3-(4-methylpiperazin-1-yl)propyl)-1H-pyrazol-4-yl)-1H-pyrazolo[3,4-d]pyrimidin-6-amine], the IC50 is no less than 10 µM on JAK2 and 0.1 to 1 µM at JAK3.

For the compound `OCCn1cc(Nc2ncc3cnn(Cc4c(F)c(F)cc(F)c4F)c3n2)cn1` [Example 196, 2-(4-((1-(2,3,5,6-Tetrafluorobenzyl)-1H-pyrazolo[3,4-d]pyrimidin-6-yl)amino)-1H-pyrazol-1-yl)ethanol], the IC50 is 0.1 to 1 µM against JAK2 and less than 0.1 µM at JAK3.

As to `COCCNC(=O)c1cccc(Cn2ncc3cnc(Nc4cnn(C)c4)nc32)c1` [Example 200], the IC50 on JAK2 was no less than 10 µM; at JAK3, less than 0.1 µM.

`Cn1cc(Nc2ncc3cnn(Cc4cccc(-c5ccnc(N)c5)c4)c3n2)cn1` [Example 206, 1-(3-(2-Aminopyridin-4-yl)benzyl)-N-(1-methyl-1H-pyrazol-4-yl)-1H-pyrazolo[3,4-d]pyrimidin-6-amine]: the values for the IC50 against JAK2 and against JAK3 were no less than 10 µM and 0.1 to 1 µM, respectively.

Turning to `Cn1cc(Nc2ncc3cnn(Cc4cccc(N5CC[C@@H](O)C5)n4)c3n2)cn1` [Example 208, (R)-1-(6-((6-((1-Methyl-1H-pyrazol-4-yl)amino)-1H-pyrazolo[3,4-d]pyrimidin-1-yl)methyl)pyridin-2-yl)pyrrolidin-3-ol], the IC50 against JAK2 is no less than 10 µM; at JAK3 it was less than 0.1 µM.

In the case of `Cn1cc(Nc2ncc3cnn(Cc4cccc(OCC(N)=O)c4)c3n2)cn1` [Example 209], the IC50 on JAK2 is 1 to 10 µM; against JAK3 it was less than 0.1 µM.

For the compound `Cn1cc(Nc2ncc3cnn(Cc4cccc(C5=CCOCC5)c4)c3n2)cn1` [Example 218, 1-(3-(3,6-Dihydro-2H-pyran-4-yl)benzyl)-N-(1-methyl-1H-pyrazol-4-yl)-1H-pyrazolo[3,4-d]pyrimidin-6-amine], the IC50 against JAK2 was no less than 10 µM; on JAK3, less than 0.1 µM.

Consider `Cn1cc(Nc2ncc3cnn(-c4ccc5c(c4)NC(=O)CO5)c3n2)cn1` [Example 219, 6-(6-((1-Methyl-1H-pyrazol-4-yl)amino)-1H-pyrazolo[3,4-d]pyrimidin-1-yl)-2H-benzo[b][1,4]oxazin-3(4H)-one], for which the IC50 against JAK2 was 0.1 to 1 µM; on JAK3, less than 0.1 µM.

As for `Cn1cc(Nc2ncc3cnn(Cc4cccc5ccccc45)c3n2)cn1` [Example 220, N-(1-Methyl-1H-pyrazol-4-yl)-1-(naphthalen-1-ylmethyl)-1H-pyrazolo[3,4-d]pyrimidin-6-amine], the values for the IC50 against JAK2 and on JAK3 were 1 to 10 µM and 0.1 to 1 µM, respectively.

For `Cn1cc(Nc2ncc3cnn(Cc4ccccc4OCCOCc4ccccc4)c3n2)cn1` [Example 221, 1-(2-(2-(Benzyloxy)ethoxy)benzyl)-N-(1-methyl-1H-pyrazol-4-yl)-1H-pyrazolo[3,4-d]pyrimidin-6-amine], the IC50 is 1 to 10 µM at JAK2 and 0.1 to 1 µM against JAK3.

Take `Cn1cc(Nc2ncc3cnn(Cc4cccc(OCCOCc5ccccc5)c4)c3n2)cn1` [Example 222, 1-(3-(2-(Benzyloxy)ethoxy)benzyl)-N-(1-methyl-1H-pyrazol-4-yl)-1H-pyrazolo[3,4-d]pyrimidin-6-amine]: the IC50 against JAK2 is no less than 10 µM; against JAK3, 0.1 to 1 µM.

For the compound `Cn1cc(Nc2ncc3cnn(Cc4ccccc4Oc4ccccc4)c3n2)cn1` [Example 224, N-(1-Methyl-1H-pyrazol-4-yl)-1-(2-phenoxybenzyl)-1H-pyrazolo[3,4-d]pyrimidin-6-amine], the figures for the IC50 against JAK2 and against JAK3 were no less than 10 µM and 0.1 to 1 µM, respectively.

Consider `Cn1cc(Nc2ncc3cnn(Cc4cccc(OCCN5CCCC5=O)c4)c3n2)cn1` [Example 225, 1-(2-(3-((6-((1-Methyl-1H-pyrazol-4-yl)amino)-1H-pyrazolo[3,4-d]pyrimidin-1-yl)methyl)phenoxy)ethyl)pyrrolidin-2-one], for which the IC50 at JAK2 is no less than 10 µM; against JAK3, less than 0.1 µM.

As for `Cn1cc(Nc2ncc3cnn(Cc4cccc5c4OCO5)c3n2)cn1` [Example 228, 1-(Benzo[d][1,3]dioxol-4-ylmethyl)-N-(1-methyl-1H-pyrazol-4-yl)-1H-pyrazolo[3,4-d]pyrimidin-6-amine], the IC50 on JAK2 was 0.1 to 1 µM; against JAK3, less than 0.1 µM.

Turning to `Cn1cc(Nc2ncc3cnn(Cc4cccc5c4OCCO5)c3n2)cn1` [Example 229, 1-((2,3-Dihydrobenzo[b][1,4]dioxin-5-yl)methyl)-N-(1-methyl-1H-pyrazol-4-yl)-1H-pyrazolo[3,4-d]pyrimidin-6-amine], the values for the IC50 against JAK2 and against JAK3 were 0.1 to 1 µM and less than 0.1 µM, respectively.

As to `Cn1cc(Nc2ncc3cnn(Cc4cccc(-c5ccncc5)c4)c3n2)cn1` [Example 230, N-(1-Methyl-1H-pyrazol-4-yl)-1-(3-(pyridin-4-yl)benzyl)-1H-pyrazolo[3,4-d]pyrimidin-6-amine], the values for the IC50 against JAK2 and on JAK3 were no less than 10 µM and less than 0.1 µM, respectively.

Take `Cn1nc(Nc2ncc3cnn(Cc4ccccc4F)c3n2)cc1C(=O)O` [Example 236, 3-((1-(2-Fluorobenzyl)-1H-pyrazolo[3,4-d]pyrimidin-6-yl)amino)-1-methyl-1H-pyrazole-5-carboxylic acid]: the IC50 against JAK2 was no less than 10 µM; on JAK3, 0.1 to 1 µM.

For `Cn1cnc(Nc2ncc3cnn(Cc4ccccc4F)c3n2)c1` [Example 237, 1-(2-Fluorobenzyl)-N-(1-methyl-1H-imidazol-4-yl)-1H-pyrazolo[3,4-d]pyrimidin-6-amine], the IC50 against JAK2 is no less than 10 µM; against JAK3 it was 0.1 to 1 µM.

Take `OCCn1ccc(Nc2ncc3cnn(Cc4ccccc4F)c3n2)n1` [Example 238, 2-(3-((1-(2-Fluorobenzyl)-1H-pyrazolo[3,4-d]pyrimidin-6-yl)amino)-1H-pyrazol-1-yl)ethanol]: the figures for the IC50 on JAK2 and on JAK3 were no less than 10 µM and 0.1 to 1 µM, respectively.

With `CNC(=O)c1cc(Nc2ncc3cnn(Cc4ccccc4F)c3n2)c[nH]1` [Example 239, 4-((1-(2-Fluorobenzyl)-1H-pyrazolo[3,4-d]pyrimidin-6-yl)amino)-N-methyl-1H-pyrrole-2-carboxamide], the IC50 on JAK2 and at JAK3 was less than 0.1 µM throughout.

Consider `OCCn1cnc(Nc2ncc3cnn(Cc4ccccc4F)c3n2)c1` [Example 240, 2-(4-((1-(2-Fluorobenzyl)-1H-pyrazolo[3,4-d]pyrimidin-6-yl)amino)-1H-imidazol-1-yl)ethanol], for which the IC50 at JAK2 is 1 to 10 µM; at JAK3 it was less than 0.1 µM.

Consider `Cn1ccc(Nc2ncc3cnn(Cc4ccccc4F)c3n2)c1` [Example 241, 1-(2-Fluorobenzyl)-N-(1-methyl-1H-pyrrol-3-yl)-1H-pyrazolo[3,4-d]pyrimidin-6-amine], for which the IC50 at JAK2 was 1 to 10 µM; at JAK3, less than 0.1 µM.
